Legend:
Format in all cases: in vivo
[1] = tested on: giant foxtail (Setaria faberi); assay: Test G Post-Emergence Protocol; conditions: Setaria faberi, post-emergence, 312 h; for pest or weed control at 15.625 g/ha: 15.625 g ai/ha, evaluated after 13 days (100=total damage to plant; 0=no damage to plant), read-out: Foxtail, Giant damage rating; for pest or weed control at 62.5 g/ha: 62.5 g ai/ha, read-out: Foxtail, Giant damage rating (100=total damage to plant; 0=no damage to plant); for pest or weed control at 62.5 g/ha / pest or weed control at 250 g/ha: evaluated after 13 days; for pest or weed control at 250 g/ha: 250 g ai/ha, read-out: damage to plant, Foxtail, Giant (100=total damage to plant; 0=no damage to plant)
Outline: (§1)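 Foliar application was made 8 days after sowing, using an aqueous spray of the active in acetone/water (50:50) with 0.5% Tween 20, at doses of 15.625, 62.5 or 250 g/ha. Injury was assessed 13 days later, where 100 meant the plant was fully damaged.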

[2] = tested on: velvetleaf (Abutilon theophrasti); assay: Test G Post-Emergence Protocol; conditions: Abutilon theophrasti, post-emergence, 312 h; for pest or weed control at 15.625 g/ha: 15.625 g ai/ha, evaluated after 13 days (100=total damage to plant; 0=no damage to plant), read-out: Velvetleaf damage rating; for pest or weed control at 62.5 g/ha: 62.5 g ai/ha, read-out: Velvetleaf damage rating (100=total damage to plant; 0=no damage to plant); for pest or weed control at 62.5 g/ha / pest or weed control at 250 g/ha: evaluated after 13 days; for pest or weed control at 250 g/ha: 250 g ai/ha, read-out: damage to plant, Velvetleaf (100=total damage to plant; 0=no damage to plant)
Outline: as §1

[3] = tested on: redroot pigweed (Amaranthus retroflexus); assay: Test G Post-Emergence Protocol; conditions: Amaranthus retroflexus, post-emergence, 312 h; for pest or weed control at 15.625 g/ha: 15.625 g ai/ha, evaluated after 13 days (100=total damage to plant; 0=no damage to plant), read-out: Pigweed, Redroot damage rating; for pest or weed control at 62.5 g/ha: 62.5 g ai/ha, read-out: Pigweed, Redroot damage rating (100=total damage to plant; 0=no damage to plant); for pest or weed control at 62.5 g/ha / pest or weed control at 250 g/ha: evaluated after 13 days; for pest or weed control at 250 g/ha: 250 g ai/ha, read-out: damage to plant, Pigweed, Redroot (100=total damage to plant; 0=no damage to plant)
Outline: as §1

[4] = tested on: barnyardgrass (Echinochloa crus-galli); assay: Test G Post-Emergence Protocol; conditions: Echinochloa crus-galli, post-emergence, 312 h; for pest or weed control at 15.625 g/ha: 15.625 g ai/ha, evaluated after 13 days (100=total damage to plant; 0=no damage to plant), read-out: Barnyardgrass damage rating; for pest or weed control at 62.5 g/ha: 62.5 g ai/ha, read-out: Barnyardgrass damage rating (100=total damage to plant; 0=no damage to plant); for pest or weed control at 62.5 g/ha / pest or weed control at 250 g/ha: evaluated after 13 days; for pest or weed control at 250 g/ha: 250 g ai/ha, read-out: damage to plant, Barnyardgrass (100=total damage to plant; 0=no damage to plant)
Outline: as §1

[5] = tested on: corn (Zea mays); assay: Test G Post-Emergence Protocol; conditions: Zea mays, post-emergence, 312 h; for plant injury at 15.625 g/ha: 15.625 g ai/ha, evaluated after 13 days (100=total damage to plant; 0=no damage to plant), read-out: Corn damage rating; for plant injury at 62.5 g/ha: 62.5 g ai/ha, read-out: Corn damage rating (100=total damage to plant; 0=no damage to plant); for plant injury at 62.5 g/ha / plant injury at 250 g/ha: evaluated after 13 days; for plant injury at 250 g/ha: 250 g ai/ha, read-out: damage to plant, Corn (100=total damage to plant; 0=no damage to plant)
Outline: as §1

[6] = tested on: ivy-leaved morning glory (Ipomoea hederacea); assay: Test G Post-Emergence Protocol; conditions: Ipomoea, post-emergence, 312 h; for pest or weed control at 15.625 g/ha: 15.625 g ai/ha, evaluated after 13 days (100=total damage to plant; 0=no damage to plant), read-out: Morningglory, Ivy-leaved damage rating; for pest or weed control at 62.5 g/ha: 62.5 g ai/ha, read-out: Morningglory, Ivy-leaved damage rating (100=total damage to plant; 0=no damage to plant); for pest or weed control at 62.5 g/ha / pest or weed control at 250 g/ha: evaluated after 13 days; for pest or weed control at 250 g/ha: 250 g ai/ha, read-out: damage to plant, Morningglory, Ivy-leaved (100=total damage to plant; 0=no damage to plant)
Outline: as §1

[7] = tested on: giant foxtail (Setaria faberi); assay: Test G Pre-Emergence Protocol; conditions: Setaria faberi, pre-emergence, 312 h, evaluated after 13 days; for pest or weed control at 15.625 g/ha: 15.625 g ai/ha; for pest or weed control at 15.625 g/ha / pest or weed control at 250 g/ha: read-out: Foxtail, Giant damage rating (100=total damage to plant; 0=no damage to plant); for pest or weed control at 62.5 g/ha: 62.5 g ai/ha, 100=total damage to plant, 0=no damage to plant, read-out: plant damage rating, Foxtail, Giant; for pest or weed control at 250 g/ha: 250 g ai/ha
Outline: (§2)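 Pre-emergence spray, 15.625/62.5/250 g/ha, vehicle acetone:water 50:50 + 0.5% Tween 20, applied 1 d after sowing. Glasshouse 24/16° C, 14 h light, 65% RH, watered twice daily. Visual damage rating at 13 d, 0–100 scale.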

[8] = tested on: velvetleaf (Abutilon theophrasti); assay: Test G Pre-Emergence Protocol; conditions: Abutilon theophrasti, pre-emergence, 312 h, evaluated after 13 days; for pest or weed control at 15.625 g/ha: 15.625 g ai/ha; for pest or weed control at 15.625 g/ha / pest or weed control at 250 g/ha: read-out: Velvetleaf damage rating (100=total damage to plant; 0=no damage to plant); for pest or weed control at 62.5 g/ha: 62.5 g ai/ha, 100=total damage to plant, 0=no damage to plant, read-out: plant damage rating, Velvetleaf; for pest or weed control at 250 g/ha: 250 g ai/ha
Outline: as §2

[9] = tested on: redroot pigweed (Amaranthus retroflexus); assay: Test G Pre-Emergence Protocol; conditions: Amaranthus retroflexus, pre-emergence, 312 h, evaluated after 13 days; for pest or weed control at 15.625 g/ha: 15.625 g ai/ha; for pest or weed control at 15.625 g/ha / pest or weed control at 250 g/ha: read-out: Pigweed, Redroot damage rating (100=total damage to plant; 0=no damage to plant); for pest or weed control at 62.5 g/ha: 62.5 g ai/ha, 100=total damage to plant, 0=no damage to plant, read-out: plant damage rating, Pigweed, Redroot; for pest or weed control at 250 g/ha: 250 g ai/ha
Outline: as §2

[10] = tested on: barnyardgrass (Echinochloa crus-galli); assay: Test G Pre-Emergence Protocol; conditions: Echinochloa crus-galli, pre-emergence, 312 h, evaluated after 13 days; for pest or weed control at 15.625 g/ha: 15.625 g ai/ha, read-out: Barnyard grass damage rating (100=total damage to plant; 0=no damage to plant); for pest or weed control at 62.5 g/ha: 62.5 g ai/ha, 100=total damage to plant, 0=no damage to plant, read-out: plant damage rating, Barnyardgrass; for pest or weed control at 250 g/ha: 250 g ai/ha, read-out: Barnyardgrass damage rating (100=total damage to plant; 0=no damage to plant)
Outline: as §2

[11] = tested on: corn (Zea mays); assay: Test G Pre-Emergence Protocol; conditions: Zea mays, pre-emergence, 312 h, evaluated after 13 days; for plant injury at 15.625 g/ha: 15.625 g ai/ha; for plant injury at 15.625 g/ha / plant injury at 250 g/ha: read-out: Corn damage rating (100=total damage to plant; 0=no damage to plant); for plant injury at 62.5 g/ha: 62.5 g ai/ha, 100=total damage to plant, 0=no damage to plant, read-out: plant damage rating, Corn; for plant injury at 250 g/ha: 250 g ai/ha
Outline: as §2

[12] = tested on: ivy-leaved morning glory (Ipomoea hederacea); assay: Test G Pre-Emergence Protocol; conditions: Ipomoea, pre-emergence, 312 h, evaluated after 13 days; for pest or weed control at 15.625 g/ha: 15.625 g ai/ha, read-out: Morning-glory, Ivy-leaved damage rating (100=total damage to plant; 0=no damage to plant); for pest or weed control at 62.5 g/ha: 62.5 g ai/ha, 100=total damage to plant, 0=no damage to plant, read-out: plant damage rating, Morningglory, Ivy-leaved; for pest or weed control at 250 g/ha: 250 g ai/ha, read-out: Morningglory, Ivy-leaved damage rating (100=total damage to plant; 0=no damage to plant)
Outline: as §2

Structure (SMILES) | pest or weed control at 15.625 g/ha [1] [%] | pest or weed control at 62.5 g/ha [1] [%] | pest or weed control at 250 g/ha [1] [%] | pest or weed control at 15.625 g/ha [2] [%] | pest or weed control at 62.5 g/ha [2] [%] | pest or weed control at 250 g/ha [2] [%] | pest or weed control at 15.625 g/ha [3] [%] | pest or weed control at 62.5 g/ha [3] [%] | pest or weed control at 250 g/ha [3] [%] | pest or weed control at 15.625 g/ha [4] [%] | pest or weed control at 62.5 g/ha [4] [%] | pest or weed control at 250 g/ha [4] [%] | plant injury at 15.625 g/ha [5] [%] | plant injury at 62.5 g/ha [5] [%] | plant injury at 250 g/ha [5] [%] | pest or weed control at 15.625 g/ha [6] [%] | pest or weed control at 62.5 g/ha [6] [%] | pest or weed control at 250 g/ha [6] [%] | pest or weed control at 15.625 g/ha [7] [%] | pest or weed control at 62.5 g/ha [7] [%] | also measured
CN1C[C@@H](c2ccc(C(F)(F)F)cc2)[C@H](C(=O)Nc2nccc(=O)[nH]2)C1=O (racemic) [Compound 1622] | 0 | 0 | 0 | 0 | 0 | 0 | 0 | 0 | 0 | 0 | 0 | 0 | 0 | 0 | 0 | 0 | 0 | 0 | 0 | 0 | pest or weed control at 250 g/ha [7]: 0%; pest or weed control at 15.625 g/ha [8]: 0%; pest or weed control at 62.5 g/ha [8]: 0%; pest or weed control at 250 g/ha [8]: 0%; pest or weed control at 15.625 g/ha [9]: 0%; pest or weed control at 62.5 g/ha [9]: 0%; pest or weed control at 250 g/ha [9]: 0%; pest or weed control at 15.625 g/ha [10]: 0%; pest or weed control at 62.5 g/ha [10]: 0%; pest or weed control at 250 g/ha [10]: 0%; plant injury at 15.625 g/ha [11]: 0%; plant injury at 62.5 g/ha [11]: 0%; plant injury at 250 g/ha [11]: 0%; pest or weed control at 15.625 g/ha [12]: 0%; pest or weed control at 62.5 g/ha [12]: 0%; pest or weed control at 250 g/ha [12]: 0%
CN1C[C@@H](c2ccc(C(F)(F)F)cc2)[C@H](C(=O)Nc2ccnc(Cl)c2)C1=O (racemic) [Compound 1571] | 0 | 0 | 0 | 0 | 0 | 0 | 0 | 0 | 0 | 0 | 0 | 0 | 0 | 0 | 0 | 0 | 0 | 0 | 0 | 0 | pest or weed control at 250 g/ha [7]: 20%; pest or weed control at 15.625 g/ha [8]: 0%; pest or weed control at 62.5 g/ha [8]: 0%; pest or weed control at 250 g/ha [8]: 0%; pest or weed control at 15.625 g/ha [9]: 0%; pest or weed control at 62.5 g/ha [9]: 0%; pest or weed control at 250 g/ha [9]: 0%; pest or weed control at 15.625 g/ha [10]: 0%; pest or weed control at 62.5 g/ha [10]: 0%; pest or weed control at 250 g/ha [10]: 0%; plant injury at 15.625 g/ha [11]: 0%; plant injury at 62.5 g/ha [11]: 0%; plant injury at 250 g/ha [11]: 0%; pest or weed control at 15.625 g/ha [12]: 0%; pest or weed control at 62.5 g/ha [12]: 0%; pest or weed control at 250 g/ha [12]: 0%
